Data as given in patent publication US20060069132A1, “Azolecarboxamide herbicides” (priority 2004, published 2006).

Assays:
kochia = experiment: Test C pre-/postemergence herbicide test; format: in vivo, Kochia scoparia; settings: for Plant response rating, Kochia / Plant response rating (0 = no effect, 100 = complete control), Kochia: preemergence; for Kochia plant response rating: Preemergence, 500 g ai/ha, scale 0 to 100, 0 no effect, 100 complete control
Summary of the method: (§1)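 Visual injury scores run from 0 (no effect) to 100 (complete control), assessed relative to untreated controls 12 to 14 days after treatment in the greenhouse. Chemicals were formulated in a non-phytotoxic solvent mixture with surfactant and applied to soil after planting or to emerged plants at the 1- to 4-leaf stage.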

eastern black nightshade = experiment: Test C pre-/postemergence herbicide test; format: in vivo, Solanum ptycanthum; settings: for Plant response rating, Nightshade / Plant response rating (0 = no effect, 100 = complete control), Nightshade: preemergence; for Nightshade plant response rating: Preemergence, 500 g ai/ha, scale 0 to 100, 0 no effect, 100 complete control
Summary of the method: as §1

yellow nutsedge = experiment: Test C pre-/postemergence herbicide test; format: in vivo, Cyperus esculentus; settings: for Plant response rating, Nutsedge, Yellow / Plant response rating (0 = no effect, 100 = complete control), Nutsedge, Yellow: preemergence; for Nutsedge, Yellow plant response rating: Preemergence, 500 g ai/ha, scale 0 to 100, 0 no effect, 100 complete control
Summary of the method: as §1

soybean = experiment: Test C pre-/postemergence herbicide test; format: in vivo, Glycine max; settings: for Plant response rating, Soybean / Plant response rating (0 = no effect, 100 = complete control), Soybean: preemergence; for Soybean plant response rating: Preemergence, 500 g ai/ha, scale 0 to 100, 0 no effect, 100 complete control
Summary of the method: as §1

lambsquarters = experiment: Test B pre-/postemergence herbicide test; format: in vivo, Chenopodium album
Summary of the method: (§2)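 Pre: seeds sown, then sprayed. Post: 1–4-leaf plants (2–18 cm) sprayed at the same time. Paddy: flooded, treated at 2-leaf stage. Formulation: non-phytotoxic solvent with surfactant. Greenhouse 13–15 days; visual 0–100 score relative to controls.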

cocklebur = experiment: Test C pre-/postemergence herbicide test; format: in vivo, Xanthium strumarium; settings: for Plant response rating, Cocklebur / Plant response rating (0 = no effect, 100 = complete control), Cocklebur: preemergence; for Plant response rating (0 = no effect, 100 = complete control), Cocklebur: 62 g ai/ha; for Cocklebur plant response rating: Preemergence, 500 g ai/ha, scale 0 to 100, 0 no effect, 100 complete control
Summary of the method: as §1

morningglory = experiment: Test B pre-/postemergence herbicide test; format: in vivo, Ipomoea coccinea
Summary of the method: as §2

[1] = 125 g ai/ha, scale 0 (no effect) to 100 (complete control), visual, 12 to 14 days
[2] = 500 g ai/ha, visual rating 0-100, 0 no effect, 100 complete control, preemergence
[3] = Postemergence, 500 g ai/ha, visual rating after 13 to 15 days, scale 0 (no effect) to 100 (complete control)
[4] = postemergence, 125 g ai/ha, visual rating, scale 0 (no effect) to 100 (complete control)
[5] = preemergence, 125 g ai/ha, 0 to 100 scale, 0 is no effect, 100 is complete control
[6] = postemergence, 500 g ai/ha, visual rating, scale 0 (no effect) to 100 (complete control)
[7] = 250 g ai/ha, scale 0 to 100 (0 no effect, 100 complete control), visual, 12 to 14 days
[8] = Postemergence, 250 g ai/ha, scale 0 (no effect) to 100 (complete control)
[9] = postemergence, 62 g ai/ha, scale 0 to 100

Row | Structure (SMILES) | Plant response rating (0 = no effect, 100 = complete control), Kochia (kochia; 62 g ai/ha) | Plant response rating, Kochia (kochia; [1]) | Plant response rating (0 = no effect, 100 = complete control), Nightshade (eastern black nightshade; 62 g ai/ha) | Plant response rating, Nightshade (eastern black nightshade; [1]) | Plant response rating (0 = no effect, 100 = complete control), Nutsedge, Yellow (yellow nutsedge; 62 g ai/ha) | Plant response rating, Nutsedge, Yellow (yellow nutsedge; [1]) | Plant response rating (0 = no effect, 100 = complete control), Soybean (soybean; 62 g ai/ha) | Plant response rating, Soybean (soybean; [1]) | Plant response rating, Lambsquarters (lambsquarters; [2]) | Lambsquarters plant response rating (lambsquarters; [4]) | Plant response rating, Lambsquarters (lambsquarters; [5]) | Plant response rating (0 = no effect, 100 = complete control), Cocklebur (cocklebur) | Plant response rating, Cocklebur (cocklebur; [1]) | Morningglory plant response rating (morningglory; [4]) | Kochia plant response rating (kochia) | Nightshade plant response rating (eastern black nightshade) | Nutsedge, Yellow plant response rating (yellow nutsedge) | Soybean plant response rating (soybean) | Plant response rating, Cocklebur (cocklebur; [7]) | Cocklebur plant response rating (cocklebur) | also measured
1 | CCC(=NO)c1cccc(NC(=O)c2cc(C(C)(C)C)nn2C)c1 [Compound 118] | 20 | 20 | 100 | 100 | 0 | 0 | 0 | 10 | 0 | 0 | 0 | 20 | 20 | 20 | – | – | – | – | – | – | Plant response rating, Kochia (kochia; 31 g ai/ha, scale 0 to 100): 10; Plant response rating, Nightshade (eastern black nightshade; 31 g ai/ha, scale 0 to 100): 60; Plant response rating, Nutsedge, Yellow (yellow nutsedge; 16 g ai/ha, scale 0 to 100, last section of Table C): 0; Plant response rating, Nutsedge, Yellow (yellow nutsedge; 31 g ai/ha, scale 0 to 100): 0; Plant response rating, Soybean (soybean; 31 g ai/ha, scale 0 to 100): 0; Plant response rating, Lambsquarters (lambsquarters; [3]): 20; Plant response rating, Cocklebur (cocklebur; 31 g ai/ha, scale 0 to 100): 0; Plant response rating, Morningglory (morningglory; [2]): 60; Plant response rating, Morningglory (morningglory; [3]): 70; Plant response rating, Morningglory (morningglory; [5]): 10
2 | CCn1nc(C(C)(C)C)cc1C(=O)Nc1cc(C#N)ccc1F [Compound 140] | 70 | 75 | 0 | 0 | 0 | 0 | 0 | – | 100 | 20 | 0 | 0 | 0 | 0 | 100 | 95 | 0 | 0 | 0 | 0 | Lambsquarters plant response rating (lambsquarters; [6]): 80; Morningglory plant response rating (morningglory; [6]): 0
3 | CCNC(=O)c1ccnc(NC(=O)c2cc(C(C)(C)C)nn2CC)c1 [Compound 152] | – | 100 | – | 90 | – | 30 | – | 10 | – | – | – | – | 65 | – | 100 | 100 | 70 | 100 | 65 | 100 | Plant response rating, Kochia (kochia; 62 g ai/ha, scale 0 to 100): 100; Plant response rating, Nightshade (eastern black nightshade; 62 g ai/ha, scale 0 to 100): 80; Plant response rating, Nutsedge, Yellow (yellow nutsedge; 62 g ai/ha, scale 0 to 100): 10; Plant response rating, Soybean (soybean; 62 g ai/ha, scale 0 to 100): 0; Lambsquarters plant response rating (lambsquarters; [8]): 80; Lambsquarters plant response rating (lambsquarters; [9]): 70; Morningglory plant response rating (morningglory; [8]): 60; Morningglory plant response rating (morningglory; [9]): 50
